Experimental data: patent publication US12606552B2, “Bifunctional compound, preparation method therefor, and use thereof” (SUZHOU KINTOR PHARMACEUTICALS, INC., priority 2020, dated 2026)

Legend:
[1] = Pharmacokinetic studies of compounds in mice; assay type: in vivo; settings: male mice, intragastric administration 10 mg/kg, plasma
Procedure: Activity Assay Example 3: Pharmacokinetic Studies of Compounds in Mice
In this test, 3 male mice were selected and divided into 1 group, 3 mice/group. All animals were fasted overnight before administration.
The intragastric administration dose was 10 mg/kg, and the administration volume was 10 mL/kg.
2.2 Preparation of Drug Solution
According to the animal body weight combined with the administration dose, the amount of the required drug solution was calculated. An appropriate amount of the test substance was weighed, added with 5% of the final volume of ethanol for dissolution, then added with 5% of the final volume of SolutolHS15, and finally added with PBS to the final volume, and mixed by vortex and fully dissolved to obtain a solution for intragastric administration (1 mg/mL). All solutions were prepared for immediate use.
2.3 Method of Administration
Before administration, the drug solution was placed on a magnetic stirrer in the animal laboratory and stirred for at least 10 min. During the administration process, vortex was continued to ensure uniformity of the drug solution. The theoretical volume of gavage administration was 10 mL/kg, which was administered with a syringe equipped with a gavage needle.
Before administration, the animals were weighed and the body weight of the animals involved in the experiment was recorded, and the administration volume of each animal was calculated according to the body weight. After administration, animals were promptly transferred back to the experimental cages to collect samples.
2.4 Observation of Animal Status
After administration, whether animals had abnormal reactions was observed immediately. If there were no abnormal reactions, animals were observed twice a day during the experiment. If abnormal reactions were found, they should be recorded in time, and the number of observations should be increased until the animals returned to normal or to the end of the experiment.
2.5 Sample Collection and Preservation
All experimental animals were fasted overnight before administration, and blood was collected at corresponding time points into blood collection tubes containing heparin sodium anticoagulant. After the whole blood was collected, the blood collection tube was gently shaken and placed on ice immediately, and then centrifuged (4° C., 4000 rpm, 10 min) to collect supernatant plasma samples, which were stored in a refrigerator at −80° C. before analysis.
2.6 Plasma Sample Processing and Analysis
The collected plasma samples were handed over to the Pharmacokinetic department for sample extraction, and the test substances in the plasma were extracted by protein precipitation method using organic reagents containing internal standards (acetonitrile:plasma=4:1, v/v). The extracted processed samples were submitted for quantitative concentration analysis by LC-MS/MS. According to the plasma concentration of each animal obtained by the analysis, software Kinetica (version 5.0) was used to calculate the main pharmacokinetic parameter eAUC30-120 according to the non-compartment model to evaluate the exposure amount; the test results are shown in Table 2: […]

AR = target: T1, AR (Homo sapiens, UniProt P10275, T878A); assay: Effects of compounds on AR expression in LNCaP cells (ELISA, DC50); assay type: cell-based; parameters: Measurement of the Effects of Drugs on the Expression of AR in Cells by ELISA Method; endogenous in cells; host or cells: LNCaP; settings: 24 hours of drug treatment, AR by ELISA
T1 sequence (P10275 1-920 T878A): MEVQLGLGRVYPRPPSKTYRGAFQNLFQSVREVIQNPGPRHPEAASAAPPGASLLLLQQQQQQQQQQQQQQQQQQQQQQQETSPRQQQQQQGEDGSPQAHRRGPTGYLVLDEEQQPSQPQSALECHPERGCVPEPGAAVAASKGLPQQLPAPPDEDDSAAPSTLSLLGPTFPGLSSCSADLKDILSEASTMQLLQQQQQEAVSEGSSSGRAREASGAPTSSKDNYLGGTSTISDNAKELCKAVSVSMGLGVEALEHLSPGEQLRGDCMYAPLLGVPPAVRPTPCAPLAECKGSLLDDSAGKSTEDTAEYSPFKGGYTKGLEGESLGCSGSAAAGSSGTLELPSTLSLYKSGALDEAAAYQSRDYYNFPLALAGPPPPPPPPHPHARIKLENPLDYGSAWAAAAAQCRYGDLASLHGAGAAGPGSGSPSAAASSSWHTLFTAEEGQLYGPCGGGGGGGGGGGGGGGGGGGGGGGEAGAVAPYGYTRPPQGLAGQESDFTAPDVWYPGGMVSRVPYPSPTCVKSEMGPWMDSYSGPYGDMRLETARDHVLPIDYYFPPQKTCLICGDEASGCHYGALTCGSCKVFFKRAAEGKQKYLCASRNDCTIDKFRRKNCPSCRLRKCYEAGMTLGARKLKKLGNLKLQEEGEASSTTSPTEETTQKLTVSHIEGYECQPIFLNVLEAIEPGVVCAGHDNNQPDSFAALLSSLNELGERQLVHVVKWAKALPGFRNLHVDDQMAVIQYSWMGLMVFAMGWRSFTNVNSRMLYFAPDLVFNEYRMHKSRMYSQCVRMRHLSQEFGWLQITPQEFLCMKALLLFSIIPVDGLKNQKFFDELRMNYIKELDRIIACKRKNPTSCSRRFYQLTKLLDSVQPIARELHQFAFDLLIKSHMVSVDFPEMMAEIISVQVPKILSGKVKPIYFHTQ
Summary of the method: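 LNCaP cells at about 15,000/well were treated for 24 h with compound at 0.0001–2 μmol/L final. AR in cell lysates was measured by ELISA (OD450). Inhibition was relative to DMSO control after blank subtraction, and DC50 was calculated from it.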

Structure (SMILES)	eAUC0.5-2 h [1] [ng·h/mL]	DC50 (AR) [nM]
Cc1ncsc1-c1ccc(CNC(=O)[C@@H]2C[C@@H](O)CN2C(=O)[C@@H](N(C)C(=O)COCCCCOc2ccc(-c3ccc(N4C(=S)N(c5ccc(C#N)c(C(F)(F)F)c5F)C(=O)C4(C)C)cn3)cc2)C(C)(C)C)cc1 [Compound A66]	525 ± 106	213
Cc1ncsc1-c1ccc(CNC(=O)[C@@H]2C[C@@H](O)CN2C(=O)[C@@H](NC(=O)COCCCCOc2ccc(-c3ccc(N4C(=S)N(c5ccc(C#N)c(C(F)(F)F)c5F)C(=O)C4(C)C)cn3)cc2C#N)C(C)(C)C)cc1 [Compound A57]	182 ± 84	31.8
Cc1ncsc1-c1ccc(CNC(=O)[C@@H]2C[C@@H](O)CN2C(=O)[C@@H](NC(=O)COCCCCOc2ccc(-c3ncc(N4C(=S)N(c5ccc(C#N)c(C(F)(F)F)c5F)C(=O)C4(C)C)cc3F)c(F)c2)C(C)(C)C)cc1 [Compound A94]	410 ± 38	58.4
Cc1ncsc1-c1ccc(CNC(=O)[C@@H]2C[C@@H](O)CN2C(=O)[C@@H](NC(=O)COCCCCOc2ccc(-c3ncc(N4C(=S)N(c5ccc(C#N)c(C(F)(F)F)c5F)C(=O)C4(C)C)cc3C(F)(F)F)cc2F)C(C)(C)C)cc1 [Compound A74]	746 ± 158	77.8
Cc1ncsc1-c1ccc(CNC(=O)[C@@H]2C[C@@H](O)CN2C(=O)[C@@H](NC(=O)COCCCCOc2c(F)cc(-c3ncc(N4C(=S)N(c5ccc(C#N)c(C(F)(F)F)c5F)C(=O)C4(C)C)cc3C(F)(F)F)cc2F)C(C)(C)C)cc1 [Compound A79]	950 ± 114	129
Cc1ncsc1-c1ccc([C@H](CC(=O)N2CCC(Oc3ccc(-c4ncc(N5C(=S)N(c6ccc(C#N)c(C(F)(F)F)c6F)C(=O)C5(C)C)cc4F)cc3F)CC2)NC(=O)[C@@H]2C[C@@H](O)CN2C(=O)[C@@H](NC(=O)C2(F)CC2)C(C)(C)C)cc1 [Compound A136]	697 ± 127	68
Cc1ncsc1-c1ccc([C@H](CC(=O)N2CCC(C#Cc3ccc(N4C(=S)N(c5ccc(C#N)c(C(F)(F)F)c5F)C(=O)C4(C)C)cc3)CC2)NC(=O)[C@@H]2C[C@@H](O)CN2C(=O)[C@@H](NC(=O)C2(F)CC2)C(C)(C)C)cc1 [Compound A133]	2253 ± 851	33.3
CC1(C)C(=O)N(c2ccc(C#N)c(C(F)(F)F)c2F)C(=S)N1c1ccc(-c2ccc(OC3CCN(C(=O)COc4cccc5c4C(=O)N(C4CCC(=O)NC4=O)C5=O)CC3)cc2)nc1 (stereo not drawn) [Compound A37]	98 ± 48	18.6
CC1(C)C(=O)N(c2ccc(C#N)c(C(F)(F)F)c2F)C(=S)N1c1ccc(-c2ccc(OCCNC(=O)COc3cccc4c3C(=O)N(C3CCC(=O)NC3=O)C4=O)c(C#N)c2)nc1 (stereo not drawn) [Compound A36]	29 ± 12	93
Cc1ncsc1-c1ccc(CNC(=O)[C@@H]2C[C@@H](O)CN2C(=O)[C@@H](NC(=O)COCCCCOc2ccc(-c3ccc(N4C(=S)N(c5ccc(C#N)c(C(F)(F)F)c5F)C(=O)C4(C)C)cn3)cc2Cl)C(C)(C)C)cc1 [Compound A83]	574 ± 176	87.8
Cc1ncsc1-c1ccc(CNC(=O)[C@@H]2C[C@@H](O)CN2C(=O)[C@@H](NC(=O)COCCCOc2ccc(-c3ccc(N4C(=S)N(c5ccc(C#N)c(C(F)(F)F)c5F)C(=O)C4(C)C)cn3)cc2F)C(C)(C)C)cc1 [Compound A72]	240 ± 68	35.1
Cc1ncsc1-c1ccc([C@H](C)NC(=O)[C@@H]2C[C@@H](O)CN2C(=O)[C@@H](NC(=O)COCCCCOc2ccc(-c3ncc(N4C(=S)N(c5ccc(C#N)c(C(F)(F)F)c5F)C(=O)C4(C)C)cc3C(F)(F)F)cc2F)C(C)(C)C)cc1 [Compound A108]	993 ± 201	136
Cc1ncsc1-c1ccc(CNC(=O)[C@@H]2C[C@@H](O)CN2C(=O)[C@@H](NC(=O)COCCCCOc2ccc(-c3ccc(N4C(=S)N(c5ccc(C#N)c(C(F)(F)F)c5F)C(=O)C4(C)C)cn3)cn2)C(C)(C)C)cc1 [Compound A100]	720 ± 206	18.9
Cc1ncsc1-c1ccc(CNC(=O)[C@@H]2C[C@@H](O)CN2C(=O)[C@@H](NC(=O)COCCCCOc2ccc(-c3ccc(N4C(=S)N(c5ccc(C#N)c(C(F)(F)F)c5F)C(=O)C4(C)C)cn3)cc2F)C(C)(C)C)cc1 [Compound A55]	396 ± 79	38.8
Cc1ncsc1-c1ccc(CNC(=O)[C@@H]2C[C@@H](O)CN2C(=O)[C@@H](NC(=O)COCCCCOc2ccc(-c3ncc(N4C(=S)N(c5ccc(C#N)c(C(F)(F)F)c5F)C(=O)C4(C)C)cc3F)cc2F)C(C)(C)C)cc1 [Compound A70]	1686 ± 938	62.1
Cc1ncsc1-c1ccc(CNC(=O)[C@@H]2C[C@@H](O)CN2C(=O)[C@@H](NC(=O)COCCCCCOc2ccc(-c3ncc(N4C(=S)N(c5ccc(C#N)c(C(F)(F)F)c5F)C(=O)C4(C)C)cc3F)cc2F)C(C)(C)C)cc1 [Compound A89]	501 ± 103.57	72
CC1(C)C(=O)N(c2ccc(C#N)c(C(F)(F)F)c2F)C(=S)N1c1ccc(-c2ccc(OCCNC(=O)COc3cccc4c3C(=O)N(C3CCC(=O)NC3=O)C4=O)c(F)c2)nc1 (stereo not drawn) [Compound A35]	71 ± 51	117
Cc1ncsc1-c1ccc(CNC(=O)[C@@H]2C[C@@H](O)CN2C(=O)[C@@H](NC(=O)COCCCCCOc2c(F)cc(-c3ncc(N4C(=S)N(c5ccc(C#N)c(C(F)(F)F)c5F)C(=O)C4(C)C)cc3F)cc2F)C(C)(C)C)cc1 [Compound A97]	1690 ± 158	98.4
Cc1ncsc1-c1ccc([C@H](C)NC(=O)[C@@H]2C[C@@H](O)CN2C(=O)[C@@H](NC(=O)COCCCCOc2c(F)cc(-c3ncc(N4C(=S)N(c5ccc(C#N)c(C(F)(F)F)c5F)C(=O)C4(C)C)cc3C(F)(F)F)cc2F)C(C)(C)C)cc1 [Compound A115]	1136 ± 164	214
CNC(=O)[C@@H]1C[C@@H](O)CN1C(=O)[C@@H](NC(=O)COCCCCOc1ccc(-c2ncc(N3C(=S)N(c4ccc(C#N)c(C(F)(F)F)c4F)C(=O)C3(C)C)cc2F)cc1F)C(C)(C)C [Compound A137]	92 ± 34	145
Cc1ncsc1-c1ccc([C@H](C)NC(=O)[C@@H]2C[C@@H](O)CN2C(=O)[C@@H](NC(=O)COCCCCOc2c(F)cc(-c3ncc(N4C(=S)N(c5ccc(C#N)c(C(F)(F)F)c5F)C(=O)C4(C)C)cc3F)cc2F)C(C)(C)C)cc1 [Compound A124]	2776 ± 292	188
